Results taken from ChEMBL document CHEMBL6134814, “Asiatic acid and its derivatives: Pharmacological insights and applications” (Eur J Med Chem, 2025).
pIC50, pKi: −log10 of the molar value. Each block holds one molecule with its values, some of them ahead of it.

How the values were obtained:
HT-29 [1] = test: Antiproliferative activity against human HT-29 cells assessed as reduction in cell viability incubated for 72 hrs by MTT assay; type: functional, cell-based; conditions: HT-29, 72 h
HCT-116 [2] = test: Cytotoxicity against human HCT-116 cells assessed as reduction in cell viability incubated fro 48 hrs by MTT assay; type: functional, cell-based; conditions: HCT-116, 48 h
[3] = Cytotoxicity against human SPCA1 cells assessed as reduction in cell viability incubated fro 48 hrs by MTT assay; type: functional, cell-based; conditions: SPCA1, 48 h
SK-OV-3 [4] = test: Cytotoxicity against human SK-OV-3 cells assessed as reduction in cell viability incubated fro 48 hrs by MTT assay; type: functional, cell-based; conditions: SK-OV-3, 48 h
B16-F10 = test: Anticancer activity against mouse B16-F10 cells assessed as reduction in cell growth incubated for 72 hrs by CCK-8 assay; type: functional, cell-based; conditions: B16-F10, 72 h
PC-3 = test: Antiproliferative activity against human PC-3 cells assessed as reduction in cell growth incubated for 72 hrs by MTT assay; type: functional, cell-based; conditions: PC-3, 72 h
A-375 [5] = test: Antiproliferative activity against human A-375 cells assessed as reduction in cell growth incubated for 72 hrs by MTT assay; type: functional, cell-based; conditions: A-375, 72 h
MIA PaCa-2 = test: Antiproliferative activity against human MIA PaCa-2 cells assessed as reduction in cell growth incubated for 72 hrs by MTT assay; type: functional, cell-based; conditions: MIA PaCa-2, 72 h
Jurkat = test: Antiproliferative activity against human Jurkat cells assessed as reduction in cell growth incubated for 72 hrs by XTT assay; type: functional, cell-based
Hepatocyte [6] = test: Hepatoprotective activity against CCl4-induced liver injury in male Wistar rat hepatocytes assessed as at 50 uM relative to control; type: functional
[7] = Antiproliferative activity against human PC9 Gefitinib-resistant (GR) cell assessed as reduction in cell viability incubated for 72 hrs by CCK-8 assay; type: functional, cell-based
A549 = test: Antiproliferative activity against human A549 cells assessed as reduction in cell viability incubated for 72 hrs by CCK-8 assay; type: functional, cell-based; conditions: A549, 72 h
SGC-7901 [8] = test: Antiproliferative activity against human SGC-7901 cells assessed as reduction in cell viability incubated for 48 hrs by MTT assay; type: functional, cell-based; conditions: SGC-7901, 48 h
HepG2 [9] = test: Antiproliferative activity against human HepG2 cells assessed as reduction in cell viability incubated for 48 hrs by MTT assay; type: functional, cell-based; conditions: HepG2, 48 h
Carbonic anhydrase 2 = Carbonic anhydrase 2 (Homo sapiens, UniProt P00918); test: Binding affinity to human carbonic anhydrase 2 assessed as inhibition constant
Carbonic anhydrase 9 = Carbonic anhydrase 9 (Homo sapiens, UniProt Q16790); test: Binding affinity to human carbonic anhydrase 9 assessed as inhibition constant
[10] = biological target: Carbonic anhydrase 5A, mitochondrial (Homo sapiens, UniProt P35218); test: Binding affinity to human carbonic anhydrase 5A assessed as inhibition constant
Carbonic anhydrase 1 = Carbonic anhydrase 1 (Homo sapiens, UniProt P00915); test: Binding affinity to human carbonic anhydrase I assessed as inhibition constant
Hepatocyte [11] = test: Hepatoprotective activity against glucosamine-induced liver injury in rat hepatocytes assessed as at 50 uM relative to control; type: functional
K562 = test: Cytotoxicity against human K562 cells assessed as reduction in cell viability incubated for 24 hrs by MTT assay; type: functional, cell-based; conditions: K562, 24 h
HeLa = test: Antiproliferative activity against human HeLa cells; type: functional, cell-based
BGC-823 = test: Antiproliferative activity against human BGC-823 cells; type: functional, cell-based
HepG2 [12] = test: Antiproliferative activity against human HepG2 cells; type: functional, cell-based
[13] = Inhibition of alpha-glucosidase (unknown origin); set-up: species or system Homo sapiens
SGC-7901 [14] = test: Antiproliferative activity against human SGC-7901 cells assessed as reduction in cell viability incubated for 72 hrs by MTT assay; type: functional, cell-based; conditions: SGC-7901, 72 h
HepG2 [15] = test: Antiproliferative activity against human HepG2 cells assessed as reduction in cell viability incubated for 72 hrs by MTT assay; type: functional, cell-based; conditions: HepG2, 72 h
MCF7 [16] = test: Cytotoxicity against human MCF7 cells assessed as reduction in cell growth incubated for 72 hrs by SRB assay; type: functional, cell-based; conditions: MCF7, 72 h
HT-29 [17] = test: Cytotoxicity against human HT-29 cells assessed as reduction in cell growth incubated for 72 hrs by SRB assay; type: functional, cell-based; conditions: HT-29, 72 h
A2780 [18] = test: Cytotoxicity against human A2780 cells assessed as reduction in cell growth incubated for 72 hrs by SRB assay; type: functional, cell-based; conditions: A2780, 72 h
A-375 [19] = test: Cytotoxicity against human A-375 cells assessed as reduction in cell growth incubated for 72 hrs by SRB assay; type: functional, cell-based; conditions: A-375, 72 h
HCT-116 [20] = test: Cytotoxicity against human HCT-116 cells assessed as reduction in cell growth incubated for 72 hrs by MTT assay; type: functional, cell-based; conditions: HCT-116, 72 h
A2780 [21] = test: Cytotoxicity against human A2780 cells assessed as reduction in cell growth incubated for 72 hrs by MTT assay; type: functional, cell-based; conditions: A2780, 72 h
HepG2 [22] = test: Cytotoxicity against human HepG2 cells assessed as reduction in cell growth incubated for 72 hrs by MTT assay; type: functional, cell-based; conditions: HepG2, 72 h
HL-60 = test: Cytotoxicity against human HL-60 cells assessed as reduction in cell growth incubated for 72 hrs by MTT assay; type: functional, cell-based; conditions: HL-60, 72 h
MCF7 [23] = test: Cytotoxicity against human MCF7 cells assessed as reduction in cell growth incubated for 72 hrs by MTT assay; type: functional, cell-based; conditions: MCF7, 72 h
KB = test: Cytotoxicity against human KB cells assessed as reduction in cell viability incubated for 48 hrs by MTT assay; type: functional, cell-based
HepG2 [24] = test: Cytotoxicity against human HepG2 cells assessed as reduction in cell viability incubated for 48 hrs by MTT assay; type: functional, cell-based; conditions: HepG2, 48 h
SK-LU-1 = test: Cytotoxicity against human SK-LU-1 cells assessed as reduction in cell viability incubated for 48 hrs by MTT assay; type: functional, cell-based; conditions: SK-LU-1, 48 h
SK-OV-3 [25] = test: Anticancer activity against human SK-OV-3 cells assessed as reduction in cell growth at 40 microg/ml incubated for 72 hrs by MTT assay relative to control; type: functional; set-up: scale not given: the % may be the effect or the level left; conditions: dose 40 µg/ml
OVCAR-3 = test: Anticancer activity against human OVCAR-3 cells assessed as reduction in cell growth at 40 microg/ml incubated for 72 hrs by MTT assay relative to control; type: functional; set-up: scale not given: the % may be the effect or the level left; conditions: dose 40 µg/ml

Carbonic anhydrase 1, sequence (P00915 whole entry): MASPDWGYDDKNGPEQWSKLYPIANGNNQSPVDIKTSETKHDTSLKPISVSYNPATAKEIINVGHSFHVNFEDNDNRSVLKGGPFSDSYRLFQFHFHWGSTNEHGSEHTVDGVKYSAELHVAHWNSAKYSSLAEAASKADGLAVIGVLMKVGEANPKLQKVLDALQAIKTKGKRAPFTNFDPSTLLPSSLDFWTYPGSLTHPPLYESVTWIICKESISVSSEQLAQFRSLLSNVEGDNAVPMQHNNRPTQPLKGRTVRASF
Carbonic anhydrase 5A, mitochondrial, sequence (P35218 whole entry): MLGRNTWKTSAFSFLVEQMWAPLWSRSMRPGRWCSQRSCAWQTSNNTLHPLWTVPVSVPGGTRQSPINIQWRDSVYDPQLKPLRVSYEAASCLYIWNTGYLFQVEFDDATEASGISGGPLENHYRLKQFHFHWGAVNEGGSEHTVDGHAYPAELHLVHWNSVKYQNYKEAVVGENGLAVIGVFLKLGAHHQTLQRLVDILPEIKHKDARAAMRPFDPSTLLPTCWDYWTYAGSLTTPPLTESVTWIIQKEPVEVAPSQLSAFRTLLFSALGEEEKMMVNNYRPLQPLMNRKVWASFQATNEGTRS

SMILES: CCOP(=O)(OCC)C(NC(=O)[C@]12CC[C@@H](C)[C@H](C)[C@H]1C1=CC[C@@H]3[C@@]4(C)C[C@@H](OC(C)=O)[C@H](OC(C)=O)[C@@](C)(COC(C)=O)[C@@H]4CC[C@@]3(C)[C@]1(C)CC2)c1ccccc1Cl (stereo not given in full)
pIC50 (HCT-116 [2]): 4.58
pIC50 [3]: 4.82
pIC50 (SK-OV-3 [4]): 4.56

SMILES: C[C@H]1[C@H](C)CC[C@]2(C(=O)O)CC[C@]3(C)C(=CC[C@@H]4[C@@]5(C)CC[C@H](O)[C@@](C)(CO)[C@@H]5CC[C@]43C)[C@H]12
Activity (Hepatocyte [6]): 58.3%

SMILES: C[C@H]1[C@H](C)CC[C@]2(C(=O)O)CC[C@]3(C)C(=CC[C@@H]4[C@@]5(C)C[C@@H](OC(=O)CCC(=O)O)[C@@H]6OC(C)(C)OC[C@@]6(C)[C@@H]5CC[C@]43C)[C@H]12
pIC50 [7]: 4.59
pIC50 (A549): 4.58

SMILES: COC(=O)[C@]12CC[C@@H](C)[C@H](C)[C@H]1C1=CC[C@@H]3[C@@]4(C)C[C@@H](OC(C)=O)C(=O)[C@@](C)(CC(=O)O)[C@@H]4CC[C@@]3(C)[C@]1(C)CC2
Activity (Hepatocyte [11]): 66.4%

SMILES: C[C@H]1[C@H](C)CC[C@]2(C(=O)OCc3ccccc3)CC[C@]3(C)C(=CC[C@@H]4[C@@]5(C)C[C@@H](O)[C@H](O)[C@@](C)(CO)[C@@H]5CC[C@]43C)[C@H]12
pIC50 (K562): 5.39

SMILES: CC(N)C(=O)N1CCN(C(=O)[C@]23CC[C@@H](C)[C@H](C)[C@H]2C2=CC[C@@H]4[C@@]5(C)C[C@@H](O)[C@H](O)[C@@](C)(CO)[C@@H]5CC[C@@]4(C)[C@]2(C)CC3)CC1 (stereo not given in full)
pIC50 [13]: 2.92

SMILES: CC(=O)O[C@@H]1C[C@@]2(C)[C@@H](CC[C@]3(C)[C@@H]2CC=C2[C@@H]4[C@@H](C)[C@H](C)CC[C@]4(C(=O)N4CCCN(C(=O)c5ccccc5-c5c6ccc(=[N+](CCO)CCO)cc-6oc6cc(N(CCO)CCO)ccc56)CCC4)CC[C@]23C)[C@](C)(OC(C)=O)[C@H]1OC(C)=O
pIC50 (MCF7 [16]): 7.77
pIC50 (HT-29 [17]): 7.92
pIC50 (A2780 [18]): 8.72
pIC50 (A-375 [19]): 8.13

SMILES: COC(=O)[C@@]1(C)[C@@H]2CC[C@]3(C)[C@H](CC=C4[C@@H]5[C@@H](C)[C@H](C)CC[C@]5(C(=O)Nc5ccccc5)CC[C@]43C)[C@@]2(C)C[C@@H](OC)[C@@H]1OC(C)=O
pIC50 (HCT-116 [20]): 5.97
pIC50 (A2780 [21]): 5.89
pIC50 (HepG2 [22]): 5.84
pIC50 (HL-60): 6.32
pIC50 (MCF7 [23]): 5.40

SMILES: CCOC(=O)CNC(=O)[C@]12CC[C@@H](C)[C@H](C)[C@H]1C1=CC[C@@H]3[C@@]4(C)C[C@@H](OC(C)=O)[C@H](OC(C)=O)[C@@](C)(COC(C)=O)[C@@H]4CC[C@@]3(C)[C@]1(C)CC2
pIC50 (KB): 5.86
pIC50 (HepG2 [24]): 5.70
pIC50 (SK-LU-1): 5.86

SMILES: C[C@H]1[C@H](C)CC[C@]2(C(=O)O)CC[C@]3(C)C(=CC[C@@H]4[C@@]5(C)C[C@@H](O)[C@H](O)[C@@](C)(CO)[C@@H]5CC[C@]43C)[C@H]12 [ASIATIC ACID]
Activity (SK-OV-3 [25]): 50%
Activity (OVCAR-3): 50%

Continued, values first:

pIC50 (HT-29 [1]): 5.39
SMILES: CC(=O)OC[C@@]1(C)[C@@H]2CC[C@]3(C)[C@H](CC=C4[C@@H]5[C@@H](C)[C@H](C)CC[C@]5(C(=O)NO)CC[C@]43C)[C@@]2(C)C[C@@H](OC(C)=O)[C@@H]1OC(C)=O

pIC50 (B16-F10): 5.38
SMILES: COC(=O)C1CCCN1C(=O)[C@]12CC[C@@H](C)[C@H](C)[C@H]1C1=CC[C@@H]3[C@@]4(C)C[C@@H](OC(C)=O)[C@H](OC(C)=O)[C@@](C)(COC(C)=O)[C@@H]4CC[C@@]3(C)[C@]1(C)CC2 (stereo not given in full)

pIC50 (PC-3): 6.38
pIC50 (A-375 [5]): 6.60
pIC50 (MIA PaCa-2): 6.34
pIC50 (Jurkat): 6.96
SMILES: COC(=O)[C@]12CC[C@@H](C)[C@H](C)[C@H]1C1=CC(=O)[C@@H]3[C@@]4(C)C(C=O)=C[C@@](C)(COS(C)(=O)=O)[C@@H]4CC[C@@]3(C)[C@]1(C)CC2

pIC50 (SGC-7901 [8]): 5.40
pIC50 (HepG2 [9]): 5.38
SMILES: COc1cccc(NC(=O)[C@]23CC[C@@H](C)[C@H](C)[C@H]2C2=CC[C@@H]4[C@@]5(C)CC6=NCCN=C6[C@@](C)(C=O)[C@@H]5CC[C@@]4(C)[C@]2(C)CC3)c1

pKi (Carbonic anhydrase 2): 6.53
pKi (Carbonic anhydrase 9): 7.59
pKi [10]: 7.44
pKi (Carbonic anhydrase 1): 5.28
SMILES: C[C@H]1[C@H](C)CC[C@]2(C(=O)Nc3ccccc3)CC[C@]3(C)C(=CC[C@@H]4[C@@]5(C)C[C@@H](OS(N)(=O)=O)[C@H](OS(N)(=O)=O)[C@@](C)(COS(N)(=O)=O)[C@@H]5CC[C@]43C)[C@H]12

pIC50 (HeLa): 5.32
pIC50 (BGC-823): 5.06
pIC50 (HepG2 [12]): 5.16
SMILES: CC(=O)OC[C@@]1(C)[C@@H]2CC[C@]3(C)[C@H](C(=O)C=C4[C@@H]5[C@@H](C)[C@H](C)CC[C@]5(C(=O)OCCO)CC[C@]43C)[C@@]2(C)C[C@@H](OC(C)=O)[C@@H]1OC(C)=O

pIC50 (SGC-7901 [14]): 5.49
pIC50 (HepG2 [15]): 5.66
SMILES: CC(=O)OC[C@@]1(C)[C@@H]2CC[C@]3(C)[C@H](C(=O)C=C4[C@@H]5[C@@H](C)[C@H](C)CC[C@]5(C(=O)Nc5ccccc5CO)CC[C@]43C)[C@@]2(C)C[C@@H](OC(C)=O)[C@@H]1OC(C)=O
